# Laboratory results: article PMC3009975, “Blocking spinal CCR2 with AZ889 reversed hyperalgesia in a model of neuropathic pain” (Molecular Pain, 2010)
# Entries after “also recorded” stand apart in the source; their conditions may differ. Read-outs that look alike come from different tables or passages of the source.
# Tests used:
# [1] = test system: DRG neurons from CCI rats; assay: Calcium imaging of cultured DRG neurons from CCI rats; type: cell-based, rat; conditions: 1 μM, before (5 min), during and after 100 nM CCL2; n = 6 cells
# Method: Since rCCL2 can activate both CCR2 and CCR5 [25] we used AZ889 to test if a selective CCR2 antagonist can prevent CCL2-induced calcium signalling in native tissue.
# Ganglia from L4 to L6 dorsal roots were harvested from CCI animals, 4 to 19 days post-surgery. The tissue was enzymatically digested at 37°C for 90 min with collagenase-A (2 mg/mL) and papain (1 mg/mL) in DMEM. Cells were plated on Poly-D-Lysine coated coverslips and maintained in F12 supplemented with 10% heat inactivated horse serum, 2 mM glutamine-penicillin-streptomycin, and 2 ng/ml NGF and GDNF for 1-3 days in a humidified chamber (5% CO2/95% O2).
# [2] = test system: non-neuronal cells in spinal cord slices from CCI rats; assay: Calcium imaging of non-neuronal cells in spinal cord slices from CCI rats; type: cell-based, rat; conditions: bath application of 50 nM CCL2; n = 4
# Method: (§1) To evaluate this we used spinal cord slices from CCI rats and evaluated if neuronal and non-neuronal cell types were sensitive to CCL2. For these recordings, calcium imaging acquisition was focused on lamina I of the dorsal horn. […] In this region, non-neuronal cells included astrocytes, microglia and other types of glial cells.
# (§2) Spinal cord slices from L4 to L6 region were prepared from CCI animals, 4 to 19 days post-surgery, following guidelines by Wan and colleagues. In order to prevent excess bleeding, 20 uL of Xylocaine was injected intramuscularly at several sites on both sides of the spinal cord. Under deep anaesthesia a laminectomy (T11 to L5) was performed. Once exposed, the spinal cord was isolated and submerged in oxygenated ice-cold solution containing (in mM): 250 sucrose, 5 KCl, 2 MgSO4, 1.25 NaH2PO4, 26 NaHCO3 and 10 glucose.
# rat CCR2 receptor = target: T1, rat CCR2 receptor (Rattus norvegicus, UniProt O55193); assay: Calcium flux assay (FLIPR) in HEK293 s cells (Gαqi5) stably expressing rat CCR2; type: cell-based; conditions: read-out: EC50, calcium activation of HEK293 s cells expressing CCR2
# T1 construct: expressed in transfected cells; host or cells: HEK293s cells co-expressing chimeric Gαqi5
# T1 sequence (O55193 1-373): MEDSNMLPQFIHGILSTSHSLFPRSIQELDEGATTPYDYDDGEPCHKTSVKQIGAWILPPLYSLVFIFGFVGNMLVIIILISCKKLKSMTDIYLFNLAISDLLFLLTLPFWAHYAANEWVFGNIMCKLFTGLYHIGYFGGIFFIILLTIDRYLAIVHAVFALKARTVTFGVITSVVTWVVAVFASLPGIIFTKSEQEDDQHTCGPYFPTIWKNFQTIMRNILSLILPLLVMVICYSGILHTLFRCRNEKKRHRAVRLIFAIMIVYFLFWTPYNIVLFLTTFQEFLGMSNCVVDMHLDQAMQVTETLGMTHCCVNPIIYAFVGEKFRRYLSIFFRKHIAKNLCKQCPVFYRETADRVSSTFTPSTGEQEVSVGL
# Description: Chemokine receptors are known to modulate intracellular calcium concentration. A library of designed molecules was screened on HEK cells expressing the receptor using a calcium flux-assay (FLIPR). Compounds capable of blocking the intracellular calcium rise evoked by mouse CCL2 in HEK293 s cells (Gαqi5) stably expressing the rat CCR2 receptor were selected and further profiled by performing dose-response curves. Mouse and rat CCL2 (mCCL2 and rCCL2) purchased from R&D Systems gave similar median effective concentrations (EC50) values (Additional file 1 Figure S1) and mCCL2 was selected to conduct the screening assay. Cells were pre-incubated (30 min) with a given concentration of compound (from 0.04 to 1 μM) and CCR2 calcium-mediated activation was evoked by the addition of mCCL2 (EC50 concentration, 1 nM).
# Briefly, HEK293 s cells stably expressing rat CCR2 and the chimeric Gαqi5 were plated (15000 cells per well) in 384-well assay plates in Dulbecco's modified Eagle's medium (DMEM) for 24 h in a humidified atmosphere at 37°C in 5% CO2. After removing the medium by inversion, cells were loaded with the calcium-sensitive dye Fluo4-AM (Molecular Devices), 15 μL per well of 4 μM FLUO-4/Pluronic acid mix (1 mM) in buffer and incubated at 37°C for 1 h in a humidified chamber (5% CO2/95% air). Cells were washed 4 times in Hanks' balanced salt solution buffer supplemented with 20 mM HEPES + 0.25% bovine serum albumin at pH 7.4. Different concentrations of the test compound (from 10 mM stock in dimethyl sulfoxide) were added in buffer for 30 min at 37°C in 5% CO2. In this assay, mouse CCL2 was added at 1 nM in buffer (EC50 value in Figure 1) and mobilization of intracellular calcium was measured online (FLIPR, Molecular Devices). The EC50 and IC50 values were determined using 8-point concentration-response curve using non-linear regression and a four-parameter logistic model (Prism 4.03 software, GraphPad Software Inc).
# [3] = test system: DRG neurons from CCI rats; assay: Whole-cell patch clamp, evoked action potential firing in DRG neurons from CCI rats; type: cell-based, rat
# Method: To assess whether DRG neurons from rats with chronic constriction injury (CCI) were also CCL2-sensitive, we performed whole-cell patch clamp recordings to evaluate the effect of the chemokine on cell excitability. A suprathreshold (500 ms) depolarizing current step was used to evoke a stable baseline of action potentials (Figure 2A) in the absence or presence of locally applied CCL2 (1min) onto the recorded cell.
# Ganglia from L4 to L6 dorsal roots were harvested from CCI animals, 4 to 19 days post-surgery. The tissue was enzymatically digested at 37°C for 90 min with collagenase-A (2 mg/mL) and papain (1 mg/mL) in DMEM. […]
# DRG cells maintained for 1-3 days in culture were transferred to a recording chamber fixed to the stage of an inverted microscope (Olympus) and constantly perfused (0.5 mL/min) with Dulbecco's phosphate buffered saline (PBS), a standard extracellular bathing solution containing (in mM): 137 NaCl; 8.1 Na2HPO4•7H2O; 2.68 KCl; 1.47 KH2PO4; 0.9 CaCl2; 0.5 MgCl2•6H2O at pH 7 and 275 to 290 mOsm. […] Signals were filtered at 1 kHz, digitized at 10 kHz (Digidata, Molecular Devices) and captured and analyzed off-line (Pclamp9 software, Molecular Devices). Action potentials were recorded with borosilicate glass patch pipettes (2-6 MΩ) filled with solution containing (in mM): 110 K-gluconate, 20 KCl, 10 EGTA, 8 NaCl, 10 HEPES, 1 MgCl2 and 4 Mg-ATP at pH 7.3. […]
# [4] = test system: DRG cells harvested from naive rats; assay: Calcium imaging of DRG cells harvested from naive rats; type: cell-based, rat; conditions: data not shown
# Description: An increased number of action potentials in DRG neurons following CCR2 activation is an intriguing observation since CCR2 is a pertussis toxin (PTX)-sensitive GPCR coupled to inhibitory Gi and/or […]. Additionally, CCR2 activation evokes excitatory Ca^2+ rises in DRG cells but the underlying mechanism is still poorly understood. To gain further insight into CCR2-mediated Ca^2+ mobilization, we next evaluated the sensitivity of both neuronal and non-neuronal cell types in the DRG by recording changes in intracellular calcium evoked by CCL2. […] In mixed-cell cultures from CCI rats, CCL2 evoked an intracellular calcium rise in both neuronal and non-neuronal DRG cells (Figure 3A-C). Non-neuronal cells, satellite cells or microglia, were easily distinguished from neurons by their size, morphology and absence of dendritic processes (Figure 3A).
# Cells and spinal cord slices were loaded with Fluo4-AM (4 μM, 30 min) in an oxygenated chamber (5% CO2/95% O2). DRG cells and spinal cord slices were washed in PBS and ACSF respectively and placed in a chamber mounted on the stage of a fluorescent microscope (Olympus). […] For each time-lapse image, the fluorescence intensity (F) was averaged over the soma area. Changes in fluorescence (ΔF) were measured as relative changes from baseline fluorescence (F0) and expressed as: […]
# [5] = test system: neuronal cells in spinal cord slices from CCI rats; assay: Calcium imaging of neurons in spinal cord slices from CCI rats; type: cell-based, rat; conditions: bath application of 50 nM CCL2; n = 5
# Method: as §1, §2
# CCI rats = assay: Thermal (heat) hyperalgesia (paw withdrawal latency) in CCI neuropathic rats; type: in vivo, rat; conditions: p.o., tested 1 h after dosing
# Description: Chronic nerve constriction injury (CCI) was induced as described previously [38] in male Sprague-Dawley rats weighing 125-150 g at the time of surgery. Briefly, under isoflurane anaesthesia, a small incision was made 0.5 cm below the pelvis, and the biceps femoris and the gluteus superficialis (left side) were separated. The sciatic nerve was exposed, isolated, and four loose ligatures (4-0 chromic gut) with 1 mm spacing were placed around it. The nerve was placed back in its natural position and the incision sealed with tissue adhesive (VetbondTM). The animals were allowed to recover for 7-10 days before conducting any behavioural testing. Animals that were not gaining weight or were showing clinical signs of distress (e.g. paralysis, self-mutilation, extensive alopecia) were not included in this study.
# Animals were brought to the laboratory 24 h prior to behavioural testing for acclimatization. […] Paw withdrawal latencies were calculated as the mean of two trials conducted with 5 min intervals between measures.
# CCI rats and their corresponding naïve controls were used throughout this study. […] In order to assess behavioural pathology, baseline hyperalgesia was determined 1-2 days before pharmacological testing. […] The percentage of anti-hyperalgesia for each rat was calculated according to the following equation: % anti-hyperalgesia = [(value-vehicle)/(naïve-vehicle)]*100.
# rats = assay: Side effects during behavioural studies (locomotor activity assay, muscle tone, overt signs); type: in vivo, rat; conditions: highest dose (pregabalin 100 mg/kg p.o.); data not shown
# [6] = Additional file 1 Figure S1, average of 3 independent experiments
compound,measurement,setting,value
COc1ccc2c(c1)CC[C@@H]1[C@@H]2CC[C@]2(C)[C@@H](NCCCCCCN3C(=O)C=CC3=O)CC[C@@H]12 [U73122],effect on CCL2-evoked calcium mobilization in DRG neurons,[1],significant block of the calcium rise peak; also recorded: significantly blocked
"rCCL2: rat CC chemokine ligand 2 (monocyte chemoattractant protein-1), CCR2 agonist, purchased from R&D Systems",calcium response in non-neuronal cells,[2],57.8 ± 42.3%
same,EC50,rat CCR2 receptor; [6],800 pM
same,increase in evoked firing compared to vehicle,"[3]; CCL2 10 nM, local application 1 min, n = 3",29 ± 9%
same,increase in evoked firing (facilitated neuronal firing),"[3]; rCCL2 100 nM, n = 6",46 ± 13%
same,calcium response in DRG cells from naive rats,[4],did not evoke any response
same,mean calcium rise peak in neurons,[5],142.5 ± 87.8%
"mCCL2: mouse CC chemokine ligand 2 (monocyte chemoattractant protein-1), CCR2 agonist, purchased from R&D Systems",EC50,rat CCR2 receptor; [6],500 pM
same,EC50,rat CCR2 receptor; Figure 1A,1000 pM
CC(C)C[C@H](CN)CC(=O)O [Pregabalin],"potency in reducing heat hyperalgesia, fold lower than AZ889",CCI rats,10 fold
same,muscle tone,rats,clear decrease in muscle tone
